Measured values as given in US10246496B2, “Potassium channel blockers and use thereof in the treatment of autoimmune diseases” (MONASH UNIVERSITY, priority 2014, dated 2019).

Assays:
[1] = biological target: Kv1.3 (Mus musculus, UniProt P16390); details: literature values (Kalman 1998; Pennington 2009); spread = s.e.m.; read-out: Binding affinities (IC50) Kv1.3; cited from earlier work
[2] = biological target: T1, mKv1.3 (Mus musculus, UniProt P16390); test: Whole-cell patch clamp electrophysiology, Kv1.3 channel currents; type: cell-based
T1 construct: expressed in transfected cells
Excerpt: Data are presented as mean±s.e.m.
Electrophysiological analysis—Cells were studied using the whole-cell configuration of a standard patch-clamp technique at RT. The bath solution contained (in mM): 160 NaCl, 4.5 KCl, 2 CaCl2, 1 MgCl2, 10 HEPES, pH 7.2, 300 mOsm. […] Kv currents were elicited by repeated 200 ms depolarising pulses from a holding potential of −80 mV to 40 mV, applied every 30 seconds. The Port-a-Patch patch clamp system (Nanion Technologies GmbH, Munich, Germany) and NPC-1 chips with 2-3.5 MΩ resistance were also utilised in conjunction. IC50 values of Kv blockers were calculated by fitting the Hill equation to the reduction of peak current measured at 40 mV.
Thus, both analogues have reduced affinity to K^+ channels and show a relatively low level of selectivity for Kv1.3 over Kv1.1. The implication is that neither Ser-3 nor Glu-3 was able to greatly discriminate between Pro377 in Kv1.3 and the corresponding Ala in Kv1.1.

T1 sequence (P16390 whole entry): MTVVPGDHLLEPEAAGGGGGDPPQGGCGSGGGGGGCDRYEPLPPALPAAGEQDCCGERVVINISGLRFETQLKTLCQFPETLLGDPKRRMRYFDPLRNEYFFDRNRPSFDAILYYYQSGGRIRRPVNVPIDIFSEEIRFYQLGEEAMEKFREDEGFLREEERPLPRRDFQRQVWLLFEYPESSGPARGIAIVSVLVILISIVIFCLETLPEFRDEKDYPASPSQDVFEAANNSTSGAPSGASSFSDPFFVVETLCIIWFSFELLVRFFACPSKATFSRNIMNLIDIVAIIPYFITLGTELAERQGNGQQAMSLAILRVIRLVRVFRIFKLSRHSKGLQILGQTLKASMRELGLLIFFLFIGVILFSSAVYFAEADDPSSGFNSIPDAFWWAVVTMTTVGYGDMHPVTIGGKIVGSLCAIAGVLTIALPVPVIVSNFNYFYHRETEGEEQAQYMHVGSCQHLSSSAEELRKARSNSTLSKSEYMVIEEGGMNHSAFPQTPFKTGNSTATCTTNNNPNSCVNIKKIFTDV
Kv1.3, sequence (P16390 whole entry): as above

Row | Compound | IC50 [1] [nM] | IC50 [2] [nM] | higher affinity for Kv1.3 as compared to [ESSS]ShK ([2]; relative to [ESSS]ShK) [fold] | higher affinity for Kv1.3 than ShK-192 ([2]; relative to ShK-192) [fold]
1 | RSCIDTIPKSRCTAFQCKHSMKYRLSFCRKTCGTC [ShK] | 0.011 | – | – | –
2 | CC[C@H](C)[C@@H]1NC(=O)[C@@H](NC(=O)[C@H](CO)NC(=O)[C@H](CCCNC(=N)N)NC(=O)[C@H](CO)NC(=O)[C@H](CO)NC(=O)[C@H](CCC(=O)O)NC(=O)[C@@H](N)CCC(=O)O)CSSC[C@@H](C(N)=O)NC(=O)[C@H]([C@@H](C)O)NC(=O)CNC(=O)[C@@H]2CSSC[C@@H]3NC(=O)[C@H](CCC(N)=O)NC(=O)[C@H](Cc4ccccc4)NC(=O)[C@H](C)NC(=O)[C@H]([C@@H](C)O)NC(=O)[C@H](CSSC[C@H](NC(=O)[C@H](Cc4ccccc4)NC(=O)[C@H](CO)NC(=O)[C@H](CC(C)C)NC(=O)[C@H](CCCNC(=N)N)NC(=O)[C@H](Cc4ccc(O)cc4)NC(=O)[C@H](CCCCN)NC(=O)[C@H](CCSC)NC(=O)[C@H](CO)NC(=O)[C@H](Cc4c[nH]cn4)NC(=O)[C@H](CCCCN)NC3=O)C(=O)N[C@@H](CCCNC(=N)N)C(=O)N[C@@H](CCCCN)C(=O)N[C@@H]([C@@H](C)O)C(=O)N2)NC(=O)[C@H](CCCNC(=N)N)NC(=O)[C@H](CO)NC(=O)[C@H](CCCCN)NC(=O)[C@@H]2CCCN2C(=O)[C@H]([C@@H](C)CC)NC(=O)[C@H]([C@@H](C)O)NC(=O)[C@H](CC(=O)O)NC1=O [[EESS]ShK] | – | 0.404 ± 0.058 | 1.6 | –
3 | CC[C@H](C)[C@@H]1NC(=O)[C@@H](NC(=O)[C@H](CO)NC(=O)[C@H](CCCNC(=N)N)NC(=O)[C@H](CO)NC(=O)[C@H](CO)NC(=O)[C@H](Cc2c[nH]c3ccccc23)NC(=O)[C@@H](N)CCC(=O)O)CSSC[C@@H](C(=O)O)NC(=O)[C@H]([C@@H](C)O)NC(=O)CNC(=O)[C@@H]2CSSC[C@@H]3NC(=O)[C@H](CCC(N)=O)NC(=O)[C@H](Cc4ccccc4)NC(=O)[C@H](C)NC(=O)[C@H]([C@@H](C)O)NC(=O)[C@H](CSSC[C@H](NC(=O)[C@H](Cc4ccccc4)NC(=O)[C@H](CO)NC(=O)[C@H](CC(C)C)NC(=O)[C@H](CCCNC(=N)N)NC(=O)[C@H](Cc4ccc(O)cc4)NC(=O)[C@H](CCCCN)NC(=O)[C@H](CCSC)NC(=O)[C@H](CO)NC(=O)[C@H](Cc4c[nH]cn4)NC(=O)[C@H](CCCCN)NC3=O)C(=O)N[C@@H](CCCNC(=N)N)C(=O)N[C@@H](CCCCN)C(=O)N[C@@H]([C@@H](C)O)C(=O)N2)NC(=O)[C@H](CCCNC(=N)N)NC(=O)[C@H](CO)NC(=O)[C@H](CCCCN)NC(=O)[C@@H]2CCCN2C(=O)[C@H]([C@@H](C)CC)NC(=O)[C@H]([C@@H](C)O)NC(=O)[C@H](CC(=O)O)NC1=O [[EWSS]ShK] | – | 0.033 ± 0.007 | – | 4
